These results are taken from patent US11472843B2, “Malacidins and methods of use” (The Rockefeller University, priority 2017, dated 2022).

The subject of experiment [1] is Klebsiella pneumonia ATCC 10031. In words: MIC assay, Klebsiella pneumonia. Type of experiment: cell-based. Here is the method:
(§1) MIC assays were performed in duplicate in 96-well microtiter plates on the basis of the protocol recommended by the Clinical and Laboratory Standards Institute (Cockerill, 2012, Clinical and Laboratory Standards Institute). All presented data are the average of at least three independent assays. Stock solutions of malacidin or daptomycin (2 mg ml^−1 in H2O) were added to the first well in a row and serially diluted (twofold per transfer) across the microtiter plate. CaCl2 was supplemented to media at a final concentration of 15 mM and fetal bovine serum (ATCC) was added to media (1:10) to test the effect of serum. Overnight cultures of bacteria were diluted 5,000-fold, and 50 μl was used as an inoculum in each well. MIC values were determined by visual inspection after 18 h incubation (30° C., static growth). For the enhanced calcium titration experiments, standard MIC assays were performed with methicillin-resistant Staphylococcus aureus (MRSA) PFGE strain type USA300 in media supplemented with CaCl2 at: 25.0, 18.8, 14.1, 7.03, 3.52, 2.50, 1.76, 0.880, 0.440, 0.250 and 0 mM. To assess the effects of monovalent and divalent cations on malacidin activity, standard MIC assays were performed with MRSA USA300 in media supplemented with 15 mM CaCl2, MgCl2, MnCl2, ZnCl2, SrCl2, NaCl and KCl. To evaluate the effects of pulmonary surfactants on activity against a community-acquired pneumonia-causing pathogen, standard MIC assays were performed with Streptococcus pneumoniae TCH8431 in media supplemented with both 15 mM CaCl1 and Survanta (beractant) at a final concentration of 5, 1, 0.5, 0.25 or 0% (volume/volume (v/v) percent).

Experiment [2] concerns Pseudomonas aeruginosa PAO1. The experiment can be described thus: MIC assay, P. aeruginosa. It is filed as cell-based. The method, then: as §1
In experiment [3] the test system is Candida albicans ATCC 1884. In words: MIC assay, C. albicans. Type of experiment: cell-based. The conditions noted are these: Candida albicans ATCC 1884. The method, then: as §1
The test system of another experiment is E. faecium Com15. In words: MIC assay, E. faecium Com15. The conditions noted are these: Enterococcus faecium Com15. It is filed as cell-based, Enterococcus faecium. Here is the method: as §1
Experiment [4] relates to Acinetobacter baumannii ATCC 17978. In words: MIC assay, A. baumannii. Type of experiment: cell-based. The method, then: as §1
Experiment [5] concerns Salmonella enterica IR 715. The experiment can be described thus: MIC assay, Salmonella enterica. It is filed as cell-based. The method, then:
as §1

Another experiment deals with Escherichia coli DH5α. The experiment can be described thus: MIC assay, E. coli DH5α. It is filed as cell-based. The method, then: as §1
The test system of experiment [6] is Cryptococcus neoformans ATCC 32045. The experiment can be described thus: MIC assay, C. neoformans. Type of experiment: cell-based. To be noted: Cryptococcus neoformans ATCC 32045. Here is the method: as §1
The subject of the next experiment is S. aureus USA300. The experiment can be described thus: MIC assay, S. aureus USA300 (MRSA). Type of experiment: cell-based, Staphylococcus aureus. To be noted: Staphylococcus aureus USA300, β-lactams (Methicillin, Oxacillin, Penicillin). The method, then:
as §1

Experiment [7] relates to UDP-MurNAc-pentapeptide in MRSA USA300. In words: UDP-MurNAc-pentapeptide accumulation assay. Type of experiment: cell-based, Staphylococcus aureus. To be noted: 10 μg ml^−1, 60 min, UPLC-MS. The method, then: The intracellular accumulation of the cell wall precursor UDP-MurNAc-pentapeptide after treatment of MRSA USA300 with malacidin was assessed as previously described (Schneider et al., […], Antimicrob Agents Ch 53:1610-18). In brief, single colonies of MRSA USA300 were grown in LB media with and without 15 mM CaCl2 to an OD600 nm of 0.6. […] of cells and medium were incubated with a final concentration of 130 μg ml^−1 chloramphenicol for 15 min at 37° C. Antibiotics to be assayed were added at 10 μg ml^−1 and incubated for 60 min at 37° C. Vancomycin, known to form a complex with lipid II, was used as a positive control. Cells were collected by centrifugation, and resuspended in 30 μl dH2O and incubated in boiling water for 15 min. The cell extract was then centrifuged at 14,000 g. Supernatant was analysed for UDP-linked cell wall precursors by a UPLC-MS system. Experiments were performed with biological replicates.

A further experiment concerns Escherichia coli BAS849. The experiment can be described thus: MIC assay, E. coli BAS849. Type of experiment: cell-based. Here is the method:
as §1, with “To evaluate the effects of pulmonary surfactants on activity against a community-acquired pneumonia-causing pathogen, standard MIC assays were performed with Streptococcus pneumoniae TCH8431 in media supplemented with both 15 mM CaCl1 and Survanta (beractant) at a final concentration of 5, 1, 0.5, 0.25 or 0% (volume/volume (v/v) percent).” left out

Another experiment relates to S. aureus NRS108. The experiment can be described thus: MIC assay, S. aureus NRS108. Type of experiment: cell-based, Staphylococcus aureus. To be noted: Staphylococcus aureus NRS108; β-lactams, Gentamicin, Kanamycin; read-out: MIC. Here is the method:
as §1

In experiment [8] the test system is Streptococcus pneumoniae TCH8431. The conditions noted are these: from Silverman et al., 2005; cited from earlier work.
For the next experiment, the system named is S. aureus NRS146. The experiment can be described thus: MIC assay, S. aureus NRS146. It is filed as cell-based, Staphylococcus aureus. To be noted: NRS 146 / VISA; Staphylococcus aureus NRS146; β-lactams, Vancomycin (VISA); read-out: MIC. The method, then: as §1
The next experiment concerns S. aureus NRS140. The experiment can be described thus: MIC assay, S. aureus NRS140. It is filed as cell-based, Staphylococcus aureus. The conditions noted are these: Staphylococcus aureus NRS140; β-lactams, Erythromycin, Spectinomycin; read-out: MIC. Here is the method:
as §1

The subject of another experiment is S. aureus NRS100. The experiment can be described thus: MIC assay, S. aureus NRS100. It is filed as cell-based, Staphylococcus aureus. The conditions noted are these: Staphylococcus aureus NRS100; β-lactams, Tetracycline; read-out: MIC. Here is the method: as §1
Another experiment concerns S. aureus COL. The experiment can be described thus: MIC assay, S. aureus COL. To be noted: Staphylococcus aureus COL; β-lactams; read-out: MIC. It is filed as cell-based, Staphylococcus aureus. The method, then: as §1
The subject of the next experiment is MRSA USA300. In words: Membrane leakage assay (SYTOX green). It is filed as cell-based, Staphylococcus aureus. To be noted: 20 μg ml^−1. Here is the method:
The effects of malacidin on membrane integrity was assessed using SYTOX green. In brief, single colonies of MRSA USA300 were grown in LB media with and without 15 mM CaCl2 to an OD600 nm of 0.35. Nine hundred microlitres of cells were mixed with 100 μL of 17 μM SYTOX green dye (Thermo Fisher). The resulting mixture was incubated for 5 min at 22° C., and then distributed to a microtiter plate at 50 μl per well. An initial reading of fluorescence pre-antibiotic addition was measured at excitation and emission wavelengths of 488 nm and 523 nm, respectively. Fifty microlitres of antibiotics was added to respective wells at a final concentration of 20 μg ml^−1. Measurements were immediately collected for 10 min. To assess the effects of malacidin on membrane depolarization, similar assays were set up using the membrane potential probe, DiBAC4 (bis-(1,3-dibutylbarbituric acid)trimethine oxonol). Single colonies of MRSA USA300 were grown in LB media with and without 15 mM CaCl2 to an OD600 nm of 0.35. Nine hundred microlitres of cells were mixed with 100 μl of 20 μg ml DiBAC4dye (Thermo Fisher). The resulting mixture was incubated for 5 min at 22° C., and then distributed to a microtiter plate at 50 μl per well. An initial reading of fluorescence pre-antibiotic addition was measured at excitation and emission wavelengths of 492 nm and 515 nm, respectively. Fifty microlitres of antibiotics was added to respective wells at a final concentration of 20 μg ml^−1. Measurements were immediately collected for 10 min. Representative examples from three technical replicates are shown.

Another experiment relates to E. faecium VRE. In words: MIC assay, E. faecium VRE. Type of experiment: cell-based, Enterococcus faecium. The conditions noted are these: Enterococcus faecium VRE; Vancomycin (VRE); read-out: MIC. Here is the method:
as §1

The test system of a further experiment is S. aureus BAA-42. In words: MIC assay, S. aureus BAA-42. To be noted: BAA42; Staphylococcus aureus BAA-42; β-lactams; read-out: MIC. It is filed as cell-based, Staphylococcus aureus. The method, then: as §1
For experiment [9], the system named is Streptococcus pneumoniae TCH8431. The experiment can be described thus: MIC assay, S. pneumoniae. It is filed as cell-based. To be noted: Streptococcus pneumoniae TCH8431; read-out: MIC. Here is the method: as §1
In experiment [10] the test system is Bacillus subtilis 168 IAI. The experiment can be described thus: MIC assay, B. subtilis. It is filed as cell-based. The conditions noted are these: Bacillus subtilis 168 IAI; read-out: MIC. Here is the method: as §1

Values after ≈ are worked out from the molar mass of the structure shown. Where two headings read alike, the source gives them in different places.

A word on the MIC: it is the smallest concentration in the dilution series that meets the test's criterion for growth inhibition. For malacidin B, the MIC in experiment [1] is more than 100 µg/mL; in experiment [2], more than 100 µg/mL; in experiment [3], more than 100 µg/mL; against E. faecium Com15, 0.8 to 2.0 µg/mL; in [4] (range of at least three independent experiments) it was more than 100 µg/mL; in experiment [5], more than 100 µg/mL. For the same molecule, the MIC is more than 100 µg/mL in the experiment with Escherichia coli DH5α, more than 100 µg/mL in [6] and 0.4 to 0.8 µg/mL against S. aureus USA300.

With `CN[C@H](CC(C)C)C(=O)N[C@H]1C(=O)N[C@@H](CC(N)=O)C(=O)N[C@H]2C(=O)N[C@H]3C(=O)N[C@H](C(=O)N[C@H](C(=O)O)c4cc(O)cc(O)c4-c4cc3ccc4O)[C@H](O)c3ccc(c(Cl)c3)Oc3cc2cc(c3O[C@@H]2O[C@H](CO)[C@@H](O)[C@H](O)[C@H]2O[C@H]2C[C@](C)(N)[C@H](O)[C@H](C)O2)Oc2ccc(cc2Cl)[C@H]1O` [vancomycin, reference compound], the “Accumulation of cell wall intermediate UDP-MurNAc-pentapeptide” value in experiment [7] is “accumulation of the cell wall intermediate UDP-MurNAc-pentapeptide”.

`CCCCCCCCCC(=O)N[C@@H](Cc1c[nH]c2ccccc12)C(=O)N[C@H](CC(N)=O)C(=O)N[C@@H](CC(=O)O)C(=O)N[C@@H]1C(=O)NCC(=O)N[C@@H](CCCN)C(=O)N[C@@H](CC(=O)O)C(=O)N[C@H](C)C(=O)N[C@@H](CC(=O)O)C(=O)NCC(=O)N[C@H](CO)C(=O)N[C@@H]([C@H](C)CC(=O)O)C(=O)N[C@@H](CC(=O)c2ccccc2N)C(=O)O[C@@H]1C` [Daptomycin, daptomycin, reference compound]: the MIC was 50 to 100 µg/mL (≈ 30.9 to 61.7 µM) against Escherichia coli BAS849; 0.2 to 0.8 µg/mL (≈ 0.123 to 0.494 µM) in the experiment on S. aureus NRS108; more than 100 µg/mL in [1] (Klebsiella pneumoniae, ATCC10031, read-out: MIC); more than 100 µg/mL in experiment [2] (read-out: MIC); more than 100 µg/mL in experiment [3] (ATCC1884, read-out: MIC); 0.2 to 0.8 µg/mL (≈ 0.123 to 0.494 µM) in the experiment on S. aureus NRS146. Besides, the MIC in the experiment on S. aureus NRS140 is 0.2 to 0.8 µg/mL (≈ 0.123 to 0.494 µM); with E. faecium Com15 (read-out: MIC), 0.4 to 2 µg/mL (≈ 0.247 to 1.23 µM); in [4] (ATCC17978, range of at least three independent experiments, read-out: MIC) it was more than 100 µg/mL; in experiment [5] (IR715, read-out: MIC) it was more than 100 µg/mL; in the experiment on S. aureus NRS100 it was 0.2 to 0.8 µg/mL (≈ 0.123 to 0.494 µM); with S. aureus COL, 0.2 to 0.8 µg/mL (≈ 0.123 to 0.494 µM). The MIC in the experiment with Escherichia coli DH5α (read-out: MIC) is more than 100 µg/mL; with E. faecium VRE, 0.4 to 2 µg/mL (≈ 0.247 to 1.23 µM); in [6] (ATCC32045, read-out: MIC), more than 100 µg/mL; in the experiment with S. aureus BAA-42, 0.2 to 0.8 µg/mL (≈ 0.123 to 0.494 µM); with S. aureus USA300 (read-out: MIC), 0.2 to 0.8 µg/mL (≈ 0.123 to 0.494 µM); in [9] it was 0.1 to 0.2 µg/mL (≈ 0.0617 to 0.123 µM). The minimal inhibitory concentration (MIC) in experiment [10] lay within 0.2 to 0.4 µg/mL (≈ 0.123 to 0.247 µM). Moreover, the “Activity in the presence of pulmonary surfactants” value in [8] is listed as “loss of activity”. The “Membrane leakage (SYTOX green or DiBAC4)” value in the experiment with MRSA USA300 (absence of calcium supplementation) is reported as “No membrane leakage”. In the experiment with MRSA USA300 (with calcium (15 mM CaCl2)), the “Membrane leakage (SYTOX green fluorescence)” value is reported as “rapid increase in fluorescence”.
